Test results published in BigSolDB 2.1.

C[C@@H]1CC[C@@]2(OC1)O[C@H]1C[C@H]3[C@@H]4CC=C5C[C@@H](O)CC[C@]5(C)[C@H]4CC[C@]3(C)[C@H]1[C@@H]2C
Settings | solubility (mole fraction)
in ethanol, 289.15 K | 0.00106
in ethanol, 301.05 K | 0.00147
in ethanol, 305.75 K | 0.0017
in ethanol, 312.35 K | 0.00188
in ethanol, 312.65 K | 0.00196
in ethanol, 316.65 K | 0.00227
in ethanol, 320.25 K | 0.00253
in ethanol, 322.35 K | 0.00269
in ethanol, 324.05 K | 0.0029
in ethanol, 325.65 K | 0.00306
in ethanol, 327.65 K | 0.00324
in ethanol, 329.05 K | 0.00338
in ethanol, 331.25 K | 0.00353
in ethanol, 332.35 K | 0.00372
in ethanol, 334.15 K | 0.00388
in isobutanol, 305.15 K | 0.00236
in isobutanol, 306.95 K | 0.00266
in isobutanol, 307.65 K | 0.00296
in isobutanol, 308.65 K | 0.00332
in isobutanol, 310.15 K | 0.00364
in isobutanol, 311.65 K | 0.00416
in isobutanol, 312.95 K | 0.00456
in isobutanol, 313.85 K | 0.00499
in isobutanol, 314.85 K | 0.0054
in isobutanol, 316.15 K | 0.00582
in isobutanol, 317.65 K | 0.00625
in isobutanol, 319.65 K | 0.00672
in isobutanol, 320.65 K | 0.0071
in isobutanol, 322.15 K | 0.00754
in isobutanol, 323.85 K | 0.00797
in isobutanol, 325.15 K | 0.00836
in isobutanol, 326.95 K | 0.00884
in isobutanol, 328.65 K | 0.00931
in isobutanol, 330.65 K | 0.00979
in isooctanol, 296.55 K | 0.0073
in isooctanol, 298.55 K | 0.00809
in isooctanol, 299.75 K | 0.0091
in isooctanol, 303.15 K | 0.00992
in isooctanol, 305.65 K | 0.0106
in isooctanol, 307.15 K | 0.0114
in isooctanol, 309.25 K | 0.012
in isooctanol, 311.85 K | 0.0129
in isooctanol, 314.65 K | 0.0139
in isooctanol, 315.95 K | 0.0146
in isooctanol, 318.25 K | 0.0154
in isooctanol, 321.05 K | 0.0163
in isooctanol, 323.25 K | 0.017
in isooctanol, 324.95 K | 0.0177
in isooctanol, 326.55 K | 0.0185
in isooctanol, 327.45 K | 0.0192
in isooctanol, 329.75 K | 0.0199
in n-butanol, 295.75 K | 0.00469
in n-butanol, 298.15 K | 0.0052
in n-butanol, 300.15 K | 0.00572
in n-butanol, 304.65 K | 0.00624
in n-butanol, 307.65 K | 0.00659
in n-butanol, 309.65 K | 0.00694
in n-butanol, 311.55 K | 0.00731
in n-butanol, 312.65 K | 0.00767
in n-butanol, 314.25 K | 0.00805
in n-butanol, 315.85 K | 0.0084
in n-butanol, 317.35 K | 0.00914
in n-butanol, 319.15 K | 0.00956
in n-butanol, 320.65 K | 0.00996
in n-butanol, 323.45 K | 0.0105
in n-butanol, 325.45 K | 0.011
in n-butanol, 326.45 K | 0.0114
in n-butanol, 328.45 K | 0.012
in n-pentanol, 290.75 K | 0.00406
in n-pentanol, 292.75 K | 0.00455
in n-pentanol, 296.15 K | 0.00507
in n-pentanol, 299.65 K | 0.00566
in n-pentanol, 301.55 K | 0.00615
in n-pentanol, 304.15 K | 0.00663
in n-pentanol, 307.65 K | 0.00722
in n-pentanol, 309.85 K | 0.00775
in n-pentanol, 312.45 K | 0.00838
in n-pentanol, 314.45 K | 0.00888
in n-pentanol, 316.75 K | 0.00933
in n-pentanol, 317.35 K | 0.00978
in n-pentanol, 318.75 K | 0.0105
in n-pentanol, 320.65 K | 0.0111
in n-pentanol, 322.65 K | 0.0116
in n-pentanol, 324.15 K | 0.0123
in n-pentanol, 325.75 K | 0.0128
in n-pentanol, 327.15 K | 0.0134
in n-pentanol, 329.15 K | 0.0139
in n-propanol, 290.15 K | 0.00163
in n-propanol, 292.95 K | 0.00205
in n-propanol, 295.55 K | 0.00243
in n-propanol, 301.75 K | 0.00278
in n-propanol, 305.25 K | 0.00307
in n-propanol, 307.95 K | 0.0034
in n-propanol, 310.95 K | 0.0039
in n-propanol, 314.75 K | 0.00424
in n-propanol, 318.15 K | 0.00473
in n-propanol, 320.05 K | 0.00506
in n-propanol, 322.75 K | 0.00542
in n-propanol, 326.35 K | 0.0059
in n-propanol, 327.85 K | 0.00622
in n-propanol, 329.25 K | 0.00663
in n-propanol, 330.65 K | 0.00696
in n-propanol, 332.65 K | 0.0073
in tert-butanol, 302.15 K | 0.000811
in tert-butanol, 304.65 K | 0.00108
in tert-butanol, 306.65 K | 0.00134
in tert-butanol, 308.15 K | 0.00151
in tert-butanol, 310.65 K | 0.00175
in tert-butanol, 312.15 K | 0.00198
in tert-butanol, 313.65 K | 0.00223
in tert-butanol, 314.15 K | 0.00244
in tert-butanol, 315.95 K | 0.00274
in tert-butanol, 317.75 K | 0.00307
in tert-butanol, 321.15 K | 0.00343
in tert-butanol, 323.15 K | 0.00368
in tert-butanol, 325.15 K | 0.00392
in tert-butanol, 326.65 K | 0.00427
in tert-butanol, 328.65 K | 0.00467
in tert-butanol, 330.75 K | 0.00497
in tert-butanol, 332.45 K | 0.00529
